Laboratory results: patent US20170172944A1, “METHODS OF TREATING MELANOMA” (Mitchell Woods Pharmaceuticals, Inc., priority 2014, published 2017)

Experiments:
Assay type in all cases: cell-based, human
[1] = tested on: UACC-647 cells; assay: Migration and invasion towards 10% FBS (xCELLigence RTCA), UACC-647; settings: for effect of pretreatment on anti-migratory activity of MNF (100 nM) / migratory rate: UACC-647, H-89 20 μM; for effect of pretreatment on anti-migratory activity of MNF (100 nM): ICI 118,551 50 nM; for migratory rate: MNF 100 nM, Forskolin 10 μM
Protocol: (§1) Assays were performed using xCELLigence RTCA Analyzer. Serum-starved cells were allowed to migrate or invade towards 10% FBS via bare microporous PET membrane or Matrigel-coated membrane, respectively.
(§2) Migration and Invasion Assay.
(§3) Migration and invasion of UACC-647, M93-047 and UACC-903 towards 10% FBS were monitored using xCELLigence system
(§4) Serum-starved UACC-647, M93-047 and UACC-903 cells were plated onto unmodified or Matrigel-coated CIM-Plates. The cells were treated with (R,R′)-MNF or vehicle (DMSO, 0.1%). Migration and invasion towards 10% FBS was monitored using xCELLigence RTCA station. Times of half-maximal infiltration of the cells towards serum were calculated and plotted against (R,R′)-MNF concentration.
ICI 118,551 and H-89 pretreatment blocked inhibitory activity of (R,R′)-MNF on UACC-647, while Forskolin mimicked (R,R′)-MNF. UACC-647 were serum-starved, pretreated with ICI 118,551, Forskolin, H-89 or DMSO and plated onto unmodified CIM-Plates. Migration towards 10% FBS was monitored using xCELLigence RTCA station. […] Forskolin (activator of adenylyl cyclase, 10 μM) mimicked MNF (100 nM). […] Pretreatment with H-89 blocked anti-migratory activity of MNF (100 nM).

[2] = tested on: UACC-647 cells; assay: Scratch wound healing assay, UACC-647; settings: UACC-647, 100 pM to 10 μM, 24 hours
Protocol: (§5) A scratch wound was made with a cell scraper. Cells were pictured using Axiovert 200 microscope and AxioCam HRc camera. (Carl Zeiss)
(§6) UACC-647, M93-047 and UACC-903 cells were cultured until confluency. Uniform scratch wounds were made on the monolayer cultures using cell scraper and the cells were challenge with (R,R′)-MNF (100 pM to 10 μM) or vehicle (DMSO, 0.1%). Images were captured at the onset of the treatment and after 24 hours.

[3] = tested on: eukaryotic elongation factor 2 (eEF2) in M93-047 cells; assay: eEF2 phosphorylation (Western blot), M93-047; settings: M93-047, serum starved 3 hours, 1 fM to 10 μM, 15 minutes
Protocol: (§7) Cells were lysed with RIPA buffer containing EGTA and EDTA (Boston BioProducts, Ashland, Mass.). The lysis buffer was mixed with a protease inhibitor cocktail (Sigma-Aldrich). Protein concentrations were measured using the bicinchoninic acid reagent (Thermo-Pierce Biotechnology, Inc., Rockford, Ill.). Proteins (20 μg/well) were separated on 4-12% precast gels (Invitrogen, Carlsbad, Calif.) using SDS-polyacrylamide gel electrophoresis under reducing conditions and were electrophoretically transferred onto polyvinylidene fluoride membrane (Invitrogen). Western blots were performed according to standard methods. The visualization of immunoreactive bands was performed using the ECL Plus Western Blotting Detection System (GE Healthcare, NJ) and their quantification was done by volume densitometry using Image J software and normalization to β-actin. […]
(§8) UACC-647, M93-047 and UACC-903 cells were serum starved for 3 hours and subjected to concentration gradient of (R,R′)-MNF (1 fM to 10 μM) or vehicle (DMSO, 0.1%) for 15 minutes. […] Proteins of interest were detected using (phospho)specific antibodies of rabbit origin and visualized by chemiluminescence. […] Levels of total and phosphorylated form of eEF2 were quantified in (R,R′)-MNF-treated cells by means of volume densitometry.

[4] = tested on: phosphorylated MEK in UACC-647 cells; assay: Phosphorylated MEK levels, UACC-647
Protocol: (R,R′)-MNF decreased basal phosphorylation levels of ERK and MEK. UACC-647, M93-047 or UACC-903 cells were serum starved for 3 hours and subjected to compound of interest or vehicle for 15 minutes. […] Cell pretreatment with 50 nM ICI 118,551 abolished MNF-evoked drop in phospho ERK levels in UACC647.

[5] = tested on: UACC-903 cells; assay: Proliferation assay (xCELLigence RTCA), UACC-903; settings: UACC-903 cells (lacking EGFR)
Protocol: (§9) UACC-647, M93-047 and UACC-903 cells were seeded out on E-Plates and allowed to settle. Cells were stimulated with MNF. Cellular proliferation and adherence was measured every 15 min using xCELLigence RTCA station.
(§10) UACC-647, M93-047 and UACC-903 cells were seeded out on E-Plates and allowed to settle. Cells were stimulated with MNF. Cellular proliferation and adherence was measured every 15 minutes using xCELLigence RTCA station. Serum-starved UACC647 cells were incubated with range of (R,R′)-MNF concentrations for 24 hours and the levels of [3H]thymidine incorporation were measured.

[6] = tested on: phosphorylated ERK in UACC-647 cells; assay: Phosphorylated ERK levels, UACC-647
Protocol: (§11) Levels of ERK1/2 and its phosphorylated forms were determined using PathScan ELISA kits according to manufacturer's protocol (Perkin Elmer Alphascreen Surefire ERK1/2 assay kit, cat no. TGRES500).
(§12) UACC-647, M93-047 or UACC-903 cells were serum starved for 3 hours and subjected to compound of interest or vehicle for 15 minutes.

[7] = tested on: UACC647 cells; assay: Proliferation assay (xCELLigence RTCA), UACC647; settings: UACC647, E-Plates, measured every 15 minutes
Protocol: as §9, §10

[8] = tested on: UACC647 cells; assay: [3H]-thymidine incorporation assay; settings: serum-starved UACC647 cells, 24 hours
Protocol: [^3H]-Thymidine Incorporation Assay.
Cells were seeded in 12-well plates at approximately 50,000 cells/well and incubated at 37° C. After 24 hours, the wells were rinsed with PBS and replaced with serum-free medium containing the appropriate concentration of the test compounds. After another 24-hour incubation at 37° C., 1 μCi of [^3H]-thymidine was added to each well and incubated at 37° C. for 16 hours. [^3H]-Thymidine incorporation into DNA was monitored after the cells were washed twice with PBS and then lysed in 600 μl of 0.1 N NaOH for 30 minutes with shaking. The lysate was then mixed with 3 mL of liquid scintillation cocktail (Beckman Coulter, Inc., Brea, Calif.), and radioactivity was measured by liquid scintillation counting using Beckman Coulter LS6000IC Scintillation Counter. Data are shown as CPM incorporated compared to the control cells.
as §10

[9] = tested on: melanoma cells (UACC-647, M93-047 and UACC-903); assay: [35S] methionine labeling, de novo protein synthesis; settings: 10 fM, 10 pM, 10 nM for 15 minutes, then [35S]Met/Cys labeling 30 minutes
Protocol: [^35S] Methionine Labeling.
Serum starved cells were incubated in serum-free medium without methionine and cysteine and treated with (R,R′)-MNF. Then, [^35S]Met/Cys labeling was carried out. Cell lysates were resolved by SDS-polyacrylamide gel electrophoresis and transferred onto PVD membrane, and autoradiography was performed. The membrane was probed with anti-β-actin antibody to confirm equal protein loading.
Serum starved (3 hours) UACC-647, M93-047 and UACC-903 cells were washed with PBS and incubated in serum-free medium without methionine and cysteine. Then, cells were treated with (R,R′)-MNF (10 fM, 10 pM, 10 nM) or incubated with vehicle (DMSO, 0.1%) for 15 minutes followed by [35S]Met/Cys labeling for 30 minutes. Cell lysates were resolved by SDS-PAGE and transferred onto PVD membrane, and autoradio-graphy was performed. The membrane was probed with anti-β-actin antibody to confirm equal protein loading. Amounts of de novo synthesized proteins were evaluated by means of volume densitometry. Obtained values were normalized to β-actin levels.

[10] = tested on: M93-047 cells; assay: Migration and invasion towards 10% FBS (xCELLigence RTCA), M93-047
Protocol: as §1, §2, §3, §4

[11] = tested on: M93-047 cells; assay: Scratch wound healing assay, M93-047; settings: M93-047, 100 pM to 10 μM, 24 hours
Protocol: as §5, §6

[12] = tested on: M93-047 cells; assay: Proliferation assay (xCELLigence RTCA), M93-047; settings: M93-047, E-Plates, measured every 15 minutes
Protocol: as §9, §10

[13] = tested on: phosphorylated ERK in M93-047 cells; assay: Phosphorylated ERK levels, M93-047; settings: M93-047, serum starved 3 hours, 15 minutes
Protocol: as §11, §12

[14] = tested on: eukaryotic elongation factor 2 (eEF2) in UACC-647 cells; assay: eEF2 phosphorylation (Western blot), UACC-647; settings: UACC-647, serum starved 3 hours, 1 fM to 10 μM, 15 minutes
Protocol: as §7, §8

For `O=S(=O)(NCCNC/C=C/c1ccc(Br)cc1)c1cccc2cnccc12` [H-89, reference compound], the “effect of pretreatment on anti-migratory activity of MNF (100 nM)” value [1] was “blocked” and the migratory rate [1] was “increased migratory rate”.

For `COc1ccc(C[C@@H](C)NC[C@H](O)c2cc(O)cc(O)c2)c2ccccc12` [(R,R′)-MNF, (R,R′)-4′-methoxy-1-naphthylfenoterol], the “motility (scratch wound)” value [2] was “inhibit motility”, the “rapid phosphorylation of eEF2” value [3] was “induce rapid phosphorylation” and the “levels of phosphorylated MEK” value [4] was “decreased”. The growth [5] was “did not inhibit”, the “nadir of U-shaped dose-response curve of phosphorylated ERK levels” value ([6]; UACC 647, serum starved 3 hours, 15 minutes) was 1 nM and the proliferation [7] was “inhibit proliferation”. For the same compound, the IC50 ([8]; Homo sapiens) was 0.136 µM, the “inhibition of incorporation of radiolabelled thymidine” value ([8]; range of concentrations) was 38±3.67% and the “de novo protein synthesis” value [9] was “inhibit”. For the same compound, the “invasion towards 10% FBS” value ([10]; M93-047, Matrigel-coated CIM-Plates) was “inhibit”, the “migration towards 10% FBS” value ([10]; M93-047, unmodified CIM-Plates) was “inhibit migration” and the “motility (scratch wound)” value [11] was “inhibit motility”. For the same compound, the proliferation [12] was “inhibit proliferation”, the “nadir of U-shaped dose-response curve of phosphorylated ERK levels” value [13] was 1 nM and the “rapid phosphorylation of eEF2” value [14] was “induce rapid phosphorylation”. For the same compound, the “invasion towards 10% FBS” value ([1]; UACC-647, Matrigel-coated CIM-Plates) was “inhibit”, the “migration towards 10% FBS” value ([1]; UACC-647, unmodified CIM-Plates) was “inhibit migration” and the migratory rate [1] was “decreased migratory rate”.

`Cc1ccc(OCC(O)C(C)NC(C)C)c2c1CCC2` (stereo not shown) [ICI 118,551, 3-(isopropylamino)-1-[(7-methyl-4-indanyl)oxy]butan-2-ol, reference compound] was tested, and the “effect of pretreatment on MNF-evoked drop in phospho ERK levels” value ([6]; UACC647, pretreatment 50 nM) was “abolished” and the “effect of pretreatment on anti-migratory activity of MNF (100 nM)” value [1] was “completely abolished”.
